# Experimental data taken from BindingDB's records for doi:10.1016/s0960-894x(00)00166-9 (Universidad Complutense, 2000).
# Biological target: 5-hydroxytryptamine receptor 7 (Rattus norvegicus, UniProt P32305)
# Assay: Binding affinity towards 5-hydroxytryptamine 7 receptor
# 5-hydroxytryptamine receptor 7, sequence (P32305 whole entry): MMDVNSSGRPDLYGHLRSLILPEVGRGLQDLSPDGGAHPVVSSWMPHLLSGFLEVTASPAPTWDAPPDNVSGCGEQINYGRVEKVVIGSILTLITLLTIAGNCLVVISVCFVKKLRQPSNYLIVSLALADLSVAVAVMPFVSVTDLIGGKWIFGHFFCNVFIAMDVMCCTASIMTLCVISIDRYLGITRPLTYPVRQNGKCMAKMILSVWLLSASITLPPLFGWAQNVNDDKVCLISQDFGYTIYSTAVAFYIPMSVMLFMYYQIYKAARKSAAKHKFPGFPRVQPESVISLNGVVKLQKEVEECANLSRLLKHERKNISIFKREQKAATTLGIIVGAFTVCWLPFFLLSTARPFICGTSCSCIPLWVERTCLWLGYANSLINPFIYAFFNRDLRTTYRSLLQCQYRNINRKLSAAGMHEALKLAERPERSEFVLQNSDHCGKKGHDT
structure (smiles),measurement,value
CC(C)(C)[C@]1(O)CCN2C[C@H]3c4ccccc4CCc4cccc(c43)[C@@H]2C1,Ki,63 nM
